Experiment: molar heat capacity at constant pressure
Settings: 101.33 kPa

OC[C@@H](O)[C@@H](O)[C@H](O)[C@H](O)CO [D-mannitol]
molar heat capacity at constant pressure [J/K/mol]
Settings | Small sample (50 mg) DSC | relaxation calorimetry
289.15 K, Crystal | 223.23 | –
290 K, Crystal | – | 224.45
290.15 K, Crystal | 223.75 | –
291.15 K, Crystal | 224.51 | –
292.15 K, Crystal | 225.52 | –
292.3 K, Crystal | – | 226.18
293.15 K, Crystal | 226.11 | –
294.15 K, Crystal | 226.79 | –
295.15 K, Crystal | 227.7 | –
296.15 K, Crystal | 228.45 | –
297.15 K, Crystal | 229.12 | –
298.15 K, Crystal | 229.81 | 230.54
299.15 K, Crystal | 230.64 | –
300 K, Crystal | – | 231.93
300.15 K, Crystal | 231.67 | –
301.15 K, Crystal | 232.46 | –
302.15 K, Crystal | 233.28 | –
302.32 K, Crystal | – | 233.27
303.15 K, Crystal | 234.21 | –
304.15 K, Crystal | 235.1 | –
305 K, Crystal | 236.23 | –
305.15 K, Crystal | 236.24 | –
306.15 K, Crystal | 237.06 | –
307.15 K, Crystal | 238.05 | –
308.15 K, Crystal | 239.43 | –
309.15 K, Crystal | 240.22 | –
310 K, Crystal | 241.08 | –
310.15 K, Crystal | 241.1 | –
311.15 K, Crystal | 242.22 | –
312.15 K, Crystal | 243.21 | –
313.15 K, Crystal | 244.03 | –
314.15 K, Crystal | 244.96 | –
315 K, Crystal | 245.72 | –
315.15 K, Crystal | 245.76 | –
316.15 K, Crystal | 246.45 | –
317.15 K, Crystal | 247.23 | –
318.15 K, Crystal | 248.19 | –
319.15 K, Crystal | 249.13 | –
320 K, Crystal | 250.2 | –
320.15 K, Crystal | 250.01 | –
321.15 K, Crystal | 250.96 | –
322.15 K, Crystal | 251.62 | –
323.15 K, Crystal | 252.78 | –
324.15 K, Crystal | 253.84 | –
325 K, Crystal | 254.58 | –
325.15 K, Crystal | 254.69 | –
326.15 K, Crystal | 255.76 | –
327.15 K, Crystal | 256.67 | –
328.15 K, Crystal | 257.61 | –
329.15 K, Crystal | 258.51 | –
330 K, Crystal | 258.9 | –
330.15 K, Crystal | 259.36 | –
331.15 K, Crystal | 260.09 | –
332.15 K, Crystal | 260.73 | –
333.15 K, Crystal | 261.83 | –
334.15 K, Crystal | 262.7 | –
335 K, Crystal | 263.16 | –
335.15 K, Crystal | 263.13 | –
336.15 K, Crystal | 263.97 | –
337.15 K, Crystal | 264.87 | –
338.15 K, Crystal | 265.55 | –
339.15 K, Crystal | 266.62 | –
340 K, Crystal | 267.39 | –
340.15 K, Crystal | 267.34 | –
341.15 K, Crystal | 268.11 | –
342.15 K, Crystal | 269.07 | –
343.15 K, Crystal | 270.04 | –
344.15 K, Crystal | 271.03 | –
345 K, Crystal | 271.57 | –
345.15 K, Crystal | 272.18 | –
346.15 K, Crystal | 272.93 | –
347.15 K, Crystal | 273.5 | –
348.15 K, Crystal | 274.48 | –
349.15 K, Crystal | 275.36 | –
350 K, Crystal | 275.71 | –
350.15 K, Crystal | 275.83 | –
351.15 K, Crystal | 276.6 | –
352.15 K, Crystal | 277.59 | –
353.15 K, Crystal | 278.11 | –
354.15 K, Crystal | 278.88 | –
355 K, Crystal | 279.8 | –
355.15 K, Crystal | 279.75 | –
356.15 K, Crystal | 280.45 | –
357.15 K, Crystal | 281.3 | –
358.15 K, Crystal | 282.01 | –
359.15 K, Crystal | 282.77 | –
360 K, Crystal | 283.81 | –
360.15 K, Crystal | 283.45 | –
361.15 K, Crystal | 284.29 | –
362.15 K, Crystal | 285.29 | –
363.15 K, Crystal | 285.81 | –
364.15 K, Crystal | 286.87 | –
365 K, Crystal | 287.75 | –
365.15 K, Crystal | 287.69 | –
366.15 K, Crystal | 288.42 | –
367.15 K, Crystal | 289.35 | –
368.15 K, Crystal | 290.07 | –
369.15 K, Crystal | 290.83 | –
370 K, Crystal | 291.59 | –
370.15 K, Crystal | 291.54 | –
371.15 K, Crystal | 292.39 | –
372.15 K, Crystal | 293.2 | –
373.15 K, Crystal | 293.84 | –
374.15 K, Crystal | 294.5 | –
375 K, Crystal | 295.33 | –
375.15 K, Crystal | 295.14 | –
376.15 K, Crystal | 295.96 | –
377.15 K, Crystal | 296.71 | –
378.15 K, Crystal | 297.3 | –
379.15 K, Crystal | 297.95 | –
380 K, Crystal | 298.96 | –
380.15 K, Crystal | 298.84 | –
381.15 K, Crystal | 299.49 | –
382.15 K, Crystal | 300.09 | –
383.15 K, Crystal | 300.96 | –
384.15 K, Crystal | 301.85 | –
385 K, Crystal | 302.49 | –
385.15 K, Crystal | 302.62 | –
386.15 K, Crystal | 303.19 | –
387.15 K, Crystal | 303.89 | –
388.15 K, Crystal | 304.75 | –
389.15 K, Crystal | 305.62 | –
390 K, Crystal | 305.94 | –
390.15 K, Crystal | 306.4 | –
391.15 K, Crystal | 307.13 | –
392.15 K, Crystal | 307.69 | –
393.15 K, Crystal | 308.43 | –
394.15 K, Crystal | 309.27 | –
395 K, Crystal | 309.33 | –
395.15 K, Crystal | 309.91 | –
396.15 K, Crystal | 310.41 | –
397.15 K, Crystal | 311.05 | –
398.15 K, Crystal | 311.45 | –
399.15 K, Crystal | 312.11 | –
400 K, Crystal | 312.71 | –
400.15 K, Crystal | 312.88 | –
401.15 K, Crystal | 313.5 | –
402.15 K, Crystal | 314.14 | –
403.15 K, Crystal | 315.02 | –
404.15 K, Crystal | 315.76 | –
405 K, Crystal | 316.13 | –
405.15 K, Crystal | 316.19 | –
406.15 K, Crystal | 317 | –
407.15 K, Crystal | 317.55 | –
408.15 K, Crystal | 318.33 | –
409.15 K, Crystal | 319.11 | –
410 K, Crystal | 319.66 | –
410.15 K, Crystal | 319.62 | –
411.15 K, Crystal | 320.34 | –
412.15 K, Crystal | 321.09 | –
413.15 K, Crystal | 321.71 | –
414.15 K, Crystal | 322.33 | –
415 K, Crystal | 323.4 | –
415.15 K, Crystal | 323.11 | –
416.15 K, Crystal | 323.76 | –
417.15 K, Crystal | 324.47 | –
418.15 K, Crystal | 325.49 | –
419.15 K, Crystal | 326.12 | –
420 K, Crystal | 327.48 | –
420.15 K, Crystal | 327.06 | –
421.15 K, Crystal | 327.89 | –
422.15 K, Crystal | 328.71 | –
423.15 K, Crystal | 329.87 | –
424.15 K, Crystal | 330.92 | –
425 K, Crystal | 332.03 | –
425.15 K, Crystal | 332.36 | –
458.15 K, Liquid | 511.69 | –
459.15 K, Liquid | 511.2 | –
460 K, Liquid | 511.26 | –
460.15 K, Liquid | 510.98 | –
461.15 K, Liquid | 510.64 | –
462.15 K, Liquid | 510.47 | –
463.15 K, Liquid | 510.51 | –
464.15 K, Liquid | 510.42 | –
465 K, Liquid | 511.16 | –
465.15 K, Liquid | 510.6 | –
466.15 K, Liquid | 510.6 | –
467.15 K, Liquid | 510.56 | –
468.15 K, Liquid | 510.86 | –
469.15 K, Liquid | 511.11 | –
470 K, Liquid | 511.05 | –
470.15 K, Liquid | 511.08 | –
471.15 K, Liquid | 511.49 | –
472.15 K, Liquid | 511.38 | –
473.15 K, Liquid | 511.18 | –
474.15 K, Liquid | 511.09 | –
475 K, Liquid | 510.95 | –
475.15 K, Liquid | 510.93 | –
476.15 K, Liquid | 510.9 | –
477.15 K, Liquid | 510.87 | –
478.15 K, Liquid | 510.67 | –
479.15 K, Liquid | 510.62 | –
480 K, Liquid | 510.84 | –
480.15 K, Liquid | 510.66 | –
481.15 K, Liquid | 510.52 | –
482.15 K, Liquid | 510.71 | –
483.15 K, Liquid | 510.62 | –
484.15 K, Liquid | 510.5 | –
485 K, Liquid | 510.74 | –
485.15 K, Liquid | 510.63 | –
486.15 K, Liquid | 510.59 | –
487.15 K, Liquid | 510.6 | –
488.15 K, Liquid | 510.74 | –
490 K, Liquid | 510.64 | –
